Values after ≈ are worked out from the molar mass of the structure shown. Starred links: 1 amine or outer side, 2 acyl side, 3 side chain; linkers in the order of their positions; H or OH if unused. Non-standard residues stand in square brackets, D forms with d. Residues, ends and D or L forms follow the SMILES beside them. Groups on a side chain read outwards from the residue. N(2-Aminoethyl)Gly = O=C(CN(CCN[*:3])[*:1])[*:2]; NBuGly = CCCCNCC(=O)O; Aoc = NCCCCCCCC(=O)O; Ava = NCCCCC(=O)O; βAla = NCCC(=O)O
Tests used:
Conditions in all cases: 24 h
C. parapsilosis = system: C. parapsilosis
C. albicans = system: C. albicans
C. dubliniensis = system: C. dubliniensis
C. tropicalis = system: C. tropicalis
C. glabrata = system: C. glabrata

SMILES	MIC C. parapsilosis (C. parapsilosis)	MIC C. albicans (C. albicans)	MIC C. dubliniensis (C. dubliniensis)	MIC C. tropicalis (C. tropicalis)	MIC C. glabrata (C. glabrata)
N=C(N)NCCC[C@H](NC(=O)[C@@H](CCCNC(=N)N)NC(=O)[C@H](CCCNC(=N)N)NC(=O)[C@@H](CCCNC(=N)N)NC(=O)CCNC(=O)[C@H](CCCNC(=N)N)NC(=O)[C@@H](CCCNC(=N)N)NC(=O)[C@H](CCCNC(=N)N)NC(=O)[C@@H](CCCNC(=N)N)NC(=O)CCNC(=O)[C@@H](CCCNC(=N)N)NC(=O)[C@H](CCCNC(=N)N)NC(=O)[C@@H](CCCNC(=N)N)NC(=O)CCNC(=O)[C@H](CCCNC(=N)N)NC(=O)[C@H](CCCNC(=N)N)NC(=O)[C@@H](N)CCCNC(=N)N)C(N)=O [SEQ ID NO: 9, RRR-(Apr)-rRr-(Apr)-rRrR-(Apr)-rRrR-NH2] (H-RRR[βAla][dR]R[dR][βAla][dR]R[dR]R[βAla][dR]R[dR]R-NH2)	0.5 µg/mL (≈ 0.207 µM)	0.5 µg/mL (≈ 0.207 µM)	0.5 µg/mL (≈ 0.207 µM)	0.5 µg/mL (≈ 0.207 µM)	2 µg/mL (≈ 0.828 µM)
N=C(N)NCCC[C@@H](N)C(=O)N[C@@H](CCCNC(=N)N)C(=O)N[C@H](CCCNC(=N)N)C(=O)NCCC(=O)N[C@@H](CCCNC(=N)N)C(=O)N[C@@H](CCCNC(=N)N)C(=O)N[C@@H](CCCNC(=N)N)C(=O)NCCC(=O)N[C@H](CCCNC(=N)N)C(=O)N[C@@H](CCCNC(=N)N)C(=O)N[C@H](CCCNC(=N)N)C(=O)N[C@@H](CCCNC(=N)N)C(=O)NCCC(=O)N[C@H](CCCNC(=N)N)C(=O)N[C@@H](CCCNC(=N)N)C(=O)N[C@H](CCCNC(=N)N)C(=O)N[C@@H](CCCNC(=N)N)C(N)=O [SEQ ID NO: 10, rRr-(Apr)-RRR-(Apr)-rRrR-(Apr)-rRrR-NH2] (H-[dR]R[dR][βAla]RRR[βAla][dR]R[dR]R[βAla][dR]R[dR]R-NH2)	0.5 µg/mL (≈ 0.207 µM)	0.5 µg/mL (≈ 0.207 µM)	0.5 µg/mL (≈ 0.207 µM)	0.5 µg/mL (≈ 0.207 µM)	2 µg/mL (≈ 0.828 µM)
N=C(N)NCCC[C@@H](N)C(=O)N[C@@H](CCCNC(=N)N)C(=O)N[C@H](CCCNC(=N)N)C(=O)NCCC(=O)N[C@H](CCCNC(=N)N)C(=O)N[C@@H](CCCNC(=N)N)C(=O)N[C@H](CCCNC(=N)N)C(=O)NCCC(=O)N[C@@H](CCCNC(=N)N)C(=O)N[C@@H](CCCNC(=N)N)C(=O)N[C@@H](CCCNC(=N)N)C(=O)N[C@@H](CCCNC(=N)N)C(=O)NCCC(=O)N[C@H](CCCNC(=N)N)C(=O)N[C@@H](CCCNC(=N)N)C(=O)N[C@H](CCCNC(=N)N)C(=O)N[C@@H](CCCNC(=N)N)C(N)=O [SEQ ID NO: 11, rRr-(Apr)-rRr-(Apr)-RRRR-(Apr)-rRrR-NH2] (H-[dR]R[dR][βAla][dR]R[dR][βAla]RRRR[βAla][dR]R[dR]R-NH2)	0.5 µg/mL (≈ 0.207 µM)	1 µg/mL (≈ 0.414 µM)	0.5 µg/mL (≈ 0.207 µM)	2 µg/mL (≈ 0.828 µM)	>32 µg/mL
N=C(N)NCCC[C@@H](N)C(=O)N[C@@H](CCCNC(=N)N)C(=O)N[C@H](CCCNC(=N)N)C(=O)NCCC(=O)N[C@H](CCCNC(=N)N)C(=O)N[C@@H](CCCNC(=N)N)C(=O)N[C@H](CCCNC(=N)N)C(=O)NCCC(=O)N[C@H](CCCNC(=N)N)C(=O)N[C@@H](CCCNC(=N)N)C(=O)N[C@H](CCCNC(=N)N)C(=O)N[C@@H](CCCNC(=N)N)C(=O)NCCC(=O)N[C@@H](CCCNC(=N)N)C(=O)N[C@@H](CCCNC(=N)N)C(=O)N[C@@H](CCCNC(=N)N)C(=O)N[C@@H](CCCNC(=N)N)C(N)=O [SEQ ID NO: 12, rRr-(Apr)-rRr-(Apr)-rRrR-(Apr)-RRRR-NH2] (H-[dR]R[dR][βAla][dR]R[dR][βAla][dR]R[dR]R[βAla]RRRR-NH2)	0.5 µg/mL (≈ 0.207 µM)	0.5 µg/mL (≈ 0.207 µM)	0.5 µg/mL (≈ 0.207 µM)	1 µg/mL (≈ 0.414 µM)	>32 µg/mL
N=C(N)NCCC[C@@H](N)C(=O)N[C@@H](CCCNC(=N)N)C(=O)N[C@H](CCCNC(=N)N)C(=O)NCCCCCCCC(=O)N[C@H](CCCNC(=N)N)C(=O)N[C@@H](CCCNC(=N)N)C(=O)N[C@H](CCCNC(=N)N)C(=O)NCCCCCCCC(=O)N[C@H](CCCNC(=N)N)C(=O)N[C@@H](CCCNC(=N)N)C(=O)N[C@H](CCCNC(=N)N)C(=O)N[C@@H](CCCNC(=N)N)C(=O)NCCCCCCCC(=O)N[C@H](CCCNC(=N)N)C(=O)N[C@@H](CCCNC(=N)N)C(=O)N[C@H](CCCNC(=N)N)C(=O)N[C@@H](CCCNC(=N)N)C(=O)O [SEQ ID NO: 30, rRr-(Aoa)-rRr-(Aoa)-rRrR-(Aoa)-rRrR] (H-[dR]R[dR][Aoc][dR]R[dR][Aoc][dR]R[dR]R[Aoc][dR]R[dR]R-OH)	0.5 µg/mL (≈ 0.19 µM)	1 µg/mL (≈ 0.38 µM)	0.5 µg/mL (≈ 0.19 µM)	1 µg/mL (≈ 0.38 µM)	1 µg/mL (≈ 0.38 µM)
CCCCN(CC(=O)N[C@H](CCCNC(=N)N)C(=O)N[C@@H](CCCNC(=N)N)C(=O)N(CCCC)CC(=O)N[C@H](CCCNC(=N)N)C(=O)N[C@@H](CCCNC(=N)N)C(=O)N[C@H](CCCNC(=N)N)C(=O)N(CCCC)CC(=O)N[C@H](CCCNC(=N)N)C(=O)N[C@@H](CCCNC(=N)N)C(=O)N[C@H](CCCNC(=N)N)C(N)=O)C(=O)[C@H](CCCNC(=N)N)NC(=O)[C@H](N)CCCNC(=N)N [SEQ ID NO: 36, rR-(ButylGly)-rR-(ButylGly)-rRr-(ButylGly)-rRr-NH2] (H-[dR]R[NBuGly][dR]R[NBuGly][dR]R[dR][NBuGly][dR]R[dR]-NH2)	16 µg/mL (≈ 8.34 µM)	0.5 µg/mL (≈ 0.261 µM)	2 µg/mL (≈ 1.04 µM)	2 µg/mL (≈ 1.04 µM)	4 µg/mL (≈ 2.09 µM)
N=C(N)NCCC[C@@H](N)C(=O)N[C@@H](CCCNC(=N)N)C(=O)N[C@H](CCCNC(=N)N)C(=O)NCCNCC(=O)N[C@H](CCCNC(=N)N)C(=O)N[C@@H](CCCNC(=N)N)C(=O)N[C@H](CCCNC(=N)N)C(=O)NCCCCC(=O)N[C@H](CCCNC(=N)N)C(=O)N[C@@H](CCCNC(=N)N)C(=O)N[C@H](CCCNC(=N)N)C(=O)N[C@@H](CCCNC(=N)N)C(=O)NCCCCC(=O)N[C@H](CCCNC(=N)N)C(=O)N[C@@H](CCCNC(=N)N)C(=O)N[C@H](CCCNC(=N)N)C(=O)N[C@@H](CCCNC(=N)N)C(N)=O [SEQ ID NO: 41, rRr-(Aeg)-rRr-(Ava)-rRrR-(Ava)-rRrR-NH2] (H-[N(2-Aminoethyl)Gly]([dR-Arg-dR])[dR]R[dR][Ava][dR]R[dR]R[Ava][dR]R[dR]R-NH2)	1 µg/mL (≈ 0.4 µM)	1 µg/mL (≈ 0.4 µM)	0.5 µg/mL (≈ 0.2 µM)	1 µg/mL (≈ 0.4 µM)	2 µg/mL (≈ 0.799 µM)
N=C(N)NCCC[C@@H](N)C(=O)N[C@@H](CCCNC(=N)N)C(=O)N[C@H](CCCNC(=N)N)C(=O)NCCCCC(=O)N[C@H](CCCNC(=N)N)C(=O)N[C@@H](CCCNC(=N)N)C(=O)N[C@H](CCCNC(=N)N)C(=O)NCCNCC(=O)N[C@H](CCCNC(=N)N)C(=O)N[C@@H](CCCNC(=N)N)C(=O)N[C@H](CCCNC(=N)N)C(=O)N[C@@H](CCCNC(=N)N)C(=O)NCCCCC(=O)N[C@H](CCCNC(=N)N)C(=O)N[C@@H](CCCNC(=N)N)C(=O)N[C@H](CCCNC(=N)N)C(=O)N[C@@H](CCCNC(=N)N)C(N)=O [SEQ ID NO: 42, rRr-(Ava)-rRr-(Aeg)-rRrR-(Ava)-rRrR-NH2]	0.5 µg/mL (≈ 0.2 µM)	1 µg/mL (≈ 0.4 µM)	0.5 µg/mL (≈ 0.2 µM)	0.5 µg/mL (≈ 0.2 µM)	1 µg/mL (≈ 0.4 µM)

Reference: patent publication US20240360177A1, “PEPTIDES WITH ANTIMICROBIAL ACTIVITIES” (priority 2021, published 2024)
